# Measurements as given in US4633014A, “Substituted 3-hydrazinopropionates” (priority 1983, dated 1986).
# How the values were obtained:
# [1] = system: white mice; assay: in vivo
# Procedure: (§1) The study of the effect provided by the compounds according to the present invention on the cardio-vascular system was carried out in experiments on white mice. The specific (antiarrhythmic) effect and acute toxicity were studied.
# (§2) The acute toxicity of the compounds according to the present invention was determined in experiments on white mice with a mass of 20-25 g. The test compounds were administered intraperitoneally in the form of aqueous solutions or suspensions in Twin-80. Observation over the test animals was effected for 10 days.
# [2] = in vivo; conditions: mouse, in vivo, ip
# Procedure: as §1, §2
# [3] = system: arrhythmia induced by an intravenous administration of calcium chloride; assay: Antiarrhythmic activity on a model of arrhythmia induced by intravenous calcium chloride (antagonism to calcium) in mice; format: in vivo; conditions: white mice, 20-40 minutes before
# Procedure: The specific (antiarrhythmic) effect and acute toxicity were studied.
# The antiarrhythmic activity of the compounds according to the present invention was studied on a model of arrhythmia induced by an intravenous administration of calcium chloride. In experiments on white mice of both sexes with a mass of 18-25 g narcotized by urethane (1,200 mg/kg intraperitoneally) ECG in the second standard lead was recorded. A 2% solution of calcium chloride was introduced into the tail vein at a constant rate (0.01 ml for 2 sec). The dose of calcium chloride causing arrhythmia and the dose causing the heart arrest were determined. In the test groups the test compounds were administered intraperitoneally 20-40 minutes before the beginning of the experiment.
# [4] = white mice, intraperitoneal, relative to quinidine
SMILES,"Relative toxisity to quinidine ([1]; mouse, in vivo, ip, 14400 min)",LD50 at 240 h [2] [mg/kg],Dose of calcium chloride causing arrythmia in animals under experiment ([3]; intraperitoneal dose 5 mg/kg),Dose of calcium chloride causing death in animals under experiment ([3]; intraperitoneal dose 5 mg/kg),Dose of calcium chloride causing arrythmia in animals under experiment ([3]; intraperitoneal dose 25 mg/kg),Dose of calcium chloride causing death in animals under experiment ([3]; intraperitoneal dose 25 mg/kg),Dose of calcium chloride causing arrythmia in animals under experiment ([3]; intraperitoneal dose 15 mg/kg),Dose of calcium chloride causing death in animals under experiment ([3]; intraperitoneal dose 15 mg/kg),"Relative toxisity to quinidine [1, 4]"
"CNC(=O)N(CCC#N)N(C)C [I-21, 3-(2,2-dimethyl-1-methylcarbamoylhydrazino)propionitrile]","11,5",1800,"87,5 mg/kg","111,5 mg/kg","113,6 mg/kg","128,0 mg/kg",,,
"C=CCNC(=S)N(CCC#N)N(C)C [I-22, 3-(2,2-dimethyl-1-allylthiocarbamoylhydrazino)propionitrile]","9,3",1450,"92,5 mg/kg","108,0 mg/kg","130,0 mg/kg","146,0 mg/kg",,,
"CN(C)N(CCC#N)C(=S)Nc1ccccc1 [I-23, 3-(2,2-dimethyl-1-phenylthiocarbamoylhydrazino)propionitrile]","10,7",1680,86 mg/kg,"101,3 mg/kg","117,7 mg/kg","119,0 mg/kg",,,
"COC(=O)CCN(C(C)=O)N(C)C [I-24, 3-(2,2-Dimethyl-1-acetylhydrazino)methylpropionate]","8,3",1300,"108,0 mg/kg","132,0 mg/kg",,,"116,5 mg/kg","140,3 mg/kg",
"CCCC(=O)N(CCC(=O)OC)N(C)C [I-25, 3-(2,2-dimethyl-1-butyrylhydrazino)-methylpropionate]","11,2",1750,"105,1 mg/kg","112,3 mg/kg","77,0 mg/kg","95,0 mg/kg",,,
"CCCCCC(=O)N(CCC(=O)OC)N(C)C [I-26, 3-(2,2-dimethyl-1-hexanoylhydrazino)methylpropionate]",,630,"111,3 mg/kg","138,0 mg/kg",,,"107,6 mg/kg","140,0 mg/kg","4,0"
"CCCCCCCCCCCCCCCC(=O)N(CCC(=O)OC)N(C)C [I-27, 3-(2,2-dimethyl-1-hexadecanoylhydrazino)methylpropionate]","15,2",2380,"92,7 mg/kg","118,0 mg/kg",,,"109,0 mg/kg","120,6 mg/kg",
"CCCCCCCCCCCCCCCCCC(=O)N(CCC(=O)OC)N(C)C [I-28, 3-(2,2-dimethyl-1-octadecanoylhydrazino)methylpropionate]","39,4",6150,"90,1 mg/kg",108 mg/kg,"133,8 mg/kg",143 mg/kg,,,
"COC(=O)CCN(C(=O)c1ccccc1)N(C)C [I-29, 3-(2,2-dimethyl-1-benzoylhydrazino)methylpropionate]","22,4",3500,"97,6 mg/kg","109,5 mg/kg","140,2 mg/kg","142,0 mg/kg",,,
"COC(=O)CCN(C(=O)Cc1ccccc1)N(C)C [I-30, 3-(2,2-dimethyl-1-benzylcarbonylhydrazino)methylpropionate]","7,6",1200,"94,0 mg/kg","120,5 mg/kg",,,"102,0 mg/kg","125,0 mg/kg",
"COC(=O)CCN(C(=O)c1ccccc1F)N(C)C [I-31, 3-(2,2-dimethyl-I-(2'-fluorophenylcarbonyl)hydrazino)methylpropionate]","10,2",1600,"88,5 mg/kg","109,0 mg/kg",,,"100,5 mg/kg","112,5 mg/kg",
"COC(=O)CCN(C(=O)c1ccc(Br)cc1)N(C)C [I-32, 3-(2,2-dimethyl-1-(4'-bromophenylcarbonyl)hydrazino)methylpropionate]","10,7",1680,"90,3 mg/kg","105,5 mg/kg",,,"100,0 mg/kg","110,0 mg/kg",
COC(=O)CCN(C(=O)c1ccccc1COC(=O)c1ccccc1)N(C)C [I-33],"18,2",2850,"87,5 mg/kg","108,6 mg/kg",,,"111,0 mg/kg","132,5 mg/kg",
"C=CC(=O)N(CCC(=O)OC)N(C)C [I-34, 3-(2,2-dimethyl-1-acroylhydrazino)-methylpropionate]","6,2",980,"108,4 mg/kg","130,0 mg/kg",,,"110,5 mg/kg","136,0 mg/kg",
"COC(=O)CCN(C(=O)CCO)N(C)C [I-35, 3-(2,2-Dimethyl-1-3'-hydroxypropanoylhydrazino)-methylpropionate]","> 19,2",> 3000,"102,3 mg/kg",120 mg/kg,,,"105,8 mg/kg","132,5 mg/kg",
"COC(=O)CCN(C(=O)OC)N(C)C [I-36, 3-(2,2-dimethyl-1-methoxycarbonylhydrazino)methylpropionate]",,1380,"94,0 mg/kg","113,6 mg/kg",,,"98,6 mg/kg","118,5 mg/kg","8,8"
"COC(=O)C(C)CN(C(C)=O)N(C)C (stereo not drawn) [I-37, 3-(2,2-dimethyl-I-acetylhydrazino)-2-methylmethylpropionate]",,810,100 mg/kg,"132,0 mg/kg",,,123 mg/kg,"138,0 mg/kg","5,1"
"CCCCCC(=O)N(CC(C)C(=O)OC)N(C)C (stereo not drawn) [I-38, 3-(2,2-dimethyl-1-hexanoylhydrazino)-2-methylmethylpropionate]","12,3",1930,"102,0 mg/kg","115,8 mg/kg",,,"96,5 mg/kg","120,0 mg/kg",
"COC(=O)C(C)CN(C(=O)c1ccccc1)N(C)C (stereo not drawn) [I-39, 3-(2,2-dimethyl-1-benzoylhydrazino)-2-methylmethylpropionate]","11,2",1750,"88,7 mg/kg","111,3 mg/kg",,,"100,0 mg/kg","121,5 mg/kg",
"COC(=O)C(C)CN(C(=O)c1ccccc1F)N(C)C (stereo not drawn) [I-40, 3-(2,2-dimethyl-1-2'-fluorobenzoylhydrazino)-2-methylmethylpropionate]","8,0",1400,"93,5 mg/kg","115,0 mg/kg",,,"103,3 mg/kg","118,6 mg/kg",
